Test results: PMC7279002, “Novel 3′-Substituted-1′,2′,4′-Oxadiazole Derivatives of 18βH-Glycyrrhetinic Acid and Their O-Acylated Amidoximes: Synthesis and Evaluation of Antitumor and Anti-Inflammatory Potential In Vitro and In Vivo” (International Journal of Molecular Sciences, 2020)

Assays:
[1] = tested on: human cervical carcinoma HeLa; test: MTT cytotoxicity assay, 48 h; assay type: cell-based; conditions: for IC50: Homo sapiens, HeLa, MTT, 48 h, read-out: IC50, µM Cervix HeLa; for Selectivity index: HeLa: IC50 in hFF3 / IC50 in HeLa
Procedure: (§1) On the first step of the biological evaluation of novel GA derivatives 3a-h, 4a-h, and 5a-h, we analyzed their cytotoxicity in a panel of cultured mammalian cells, including human cervical carcinoma HeLa and KB-3-1, human duodenal carcinoma HuTu-80, human lung adenocarcinoma A549, murine melanoma B16 cell lines, and nontransformed human fibroblasts hFF3. The cells were treated with derivatives for 48 h and cell viability was evaluated by 3-(4, 5-dimethylthiazol-2-yl)-2, 5-diphenyltetrazolium bromide (MTT) assay. Since the studied compounds contain two types of functional groups at position 3-acetoxy- or the hydroxyl-group, 3-acetoxy-GA 1 and GA-Me were used as references. Additionally, hierarchical clustering of cytotoxic data was carried out in order to reveal groups of compounds with similar cytotoxic profiles (Figure 2A).
(§2) Human cervical carcinoma HeLa and KB-3-1 cells, human duodenal carcinoma HuTu-80 cells, and human lung adenocarcinoma A549 cells were obtained from the Russian Culture Collection (Institute of Cytology, RAS, St. Petersburg, Russia). Melanoma B16-F10 (hereafter, melanoma B16) cells were obtained from the Cell Culture Bank of the Blokhin National Medical Oncology Research Center (Moscow, Russia). Nonmalignant fibroblasts hFF3 and RAW264.7 macrophages were kindly provided by Dr. Olga A. Koval (Institute of Chemical Biology and Fundamental Medicine, SB RAS, Novosibirsk, Russia) and Prof. Dmitry Kuprash (Engelhardt Institute of Molecular Biology, RAS, Moscow, Russia), respectively. The cells were cultured in DMEM (Sigma-Aldrich Inc., St. Louis, MO, USA) supplemented with 10% (v/v) heat-inactivated fetal bovine serum (FBS) (BioloT, St. Petersburg, Russia) and antibiotic–antimycotic solution (100 U/mL penicillin, 100 µg/mL streptomycin, 0.25 µg/mL amphotericin). […] The cells were incubated at 37 °C in a humidified 5% CO2-containing air atmosphere (hereafter referred to as standard conditions). GA derivatives were dissolved in DMSO (stock solutions: 10 mM) and stored at −20 °C prior to use.
(§3) Cells were seeded in tetra- or pentaplicates in 96-well plates at a density of 10^4 (tumor cells and […] fibroblasts) or 10^5 (RAW264.7 cells) cells per well. Cells were incubated under standard conditions for 24 h, followed by their treatment with the investigated derivatives (0.5–50 µM) or corresponding concentrations of DMSO (control) for a further 48 h (tumor cells and fibroblasts) or 24 h (RAW264.7 cells). At the end of incubation period, 10 µL of MTT solution was added to the cells (final concentration: 0.5 mg/mL) and plates were incubated for an additional 2 h under standard conditions. Then, the MTT-containing medium was aspirated and formazan crystals formed in living cells were solubilized with 100 µL of DMSO. The absorbance of each well was read at test and reference wavelengths of 570 and 620 nm, respectively, on a Multiscan RC plate reader (Thermo LabSystems, Helsinki, Finland). The IC50 values (the concentration of compounds leading to a decrease of A570 to 50% of A570^control) were calculated by extrapolation of the dose–response curves. […] A heatmap of SI values was constructed by Microsoft Excel 2010.

[2] = tested on: human duodenal carcinoma HuTu-80; test: MTT cytotoxicity assay, 48 h; assay type: cell-based; conditions: for IC50: Homo sapiens, HuTu80, MTT, 48 h, read-out: IC50, µM Duodenum HuTu-80; for Selectivity index: HuTu-80: IC50 in hFF3 / IC50 in HuTu-80
Procedure: as §1, §2, §3

[3] = tested on: nontransformed human fibroblasts hFF3; test: MTT cytotoxicity assay, 48 h; assay type: cell-based; conditions: Homo sapiens, HFF-3, read-out: IC50, µM Fibroblast hFF3
Procedure: as §1, §2, §3

[4] = tested on: human cervical carcinoma KB-3-1; test: MTT cytotoxicity assay, 48 h; assay type: cell-based; conditions: for IC50: Homo sapiens, KB 3-1, MTT, 48 h, read-out: IC50, µM Cervix KB-3-1; for Selectivity index: KB-3-1: IC50 in hFF3 / IC50 in KB-3-1
Procedure: as §1, §2, §3

[5] = tested on: human lung adenocarcinoma A549; test: MTT cytotoxicity assay, 48 h; assay type: cell-based; conditions: for IC50: Homo sapiens, A549, MTT, 48 h; for Selectivity index: A549: IC50 in hFF3 / IC50 in A549
Procedure: as §1, §2, §3

murine melanoma B16 = test: MTT cytotoxicity assay, 48 h; assay type: cell-based; conditions: for Selectivity index: B16: IC50 in hFF3 / IC50 in B16; for IC50: Mus musculus, MTT, 48 h
Procedure: as §1, §2, §3

Row | SMILES | melting point | IC50 [1] | Selectivity index: HeLa [1] | IC50 [2] | Selectivity index: HuTu-80 [2] | IC50 [3] | IC50 [4] | Selectivity index: KB-3-1 [4] | IC50 [5] | Selectivity index: A549 [5] | Selectivity index: B16 (murine melanoma B16) | IC50 (murine melanoma B16)
1 | CC(=O)O[C@H]1CC[C@@]2(C)C(CC[C@]3(C)C2C(=O)C=C2[C@@H]4C[C@@](C)(C(=O)O/N=C(/N)c5ccccn5)CC[C@]4(C)CC[C@]23C)C1(C)C (stereo partly shown) [Compound 3f] | 165.8 °C (dec.) | 6.4 ± 1 µM | 1.2 | 6.9 ± 0.3 µM | 1.1 | 7.6 ± 1 µM | 10.9 ± 2.2 µM | 0.7 | 7.7 ± 1.8 µM | 1.0 | 0.3 | 22.5 ± 3.1 µM
2 | CC(=O)O[C@H]1CC[C@@]2(C)C(CC[C@]3(C)C2C(=O)C=C2[C@@H]4C[C@@](C)(C(=O)O/N=C(/N)c5ccccc5)CC[C@]4(C)CC[C@]23C)C1(C)C (stereo partly shown) [Compound 3e] | 144.6 to 145 °C | 5.8 ± 0.8 µM | 1.3 | 7.5 ± 0.1 µM | 1.0 | 7.3 ± 0.3 µM | 16 ± 1.4 µM | 0.5 | 4.9 ± 0.4 µM | 1.5 | 0.4 | 16.4 ± 0.7 µM
3 | CC(=O)O[C@H]1CC[C@@]2(C)C(CC[C@]3(C)C2C(=O)C=C2[C@@H]4C[C@@](C)(C(=O)O/N=C(/N)c5cccnc5)CC[C@]4(C)CC[C@]23C)C1(C)C (stereo partly shown) [Compound 3g] | 149.7 °C (dec.) | 6.1 ± 1 µM | 1.4 | 4.9 ± 0.3 µM | 1.7 | 8.5 ± 0.3 µM | 10 ± 0.9 µM | 0.9 | 5.6 ± 0.9 µM | 1.5 | 1.0 | 8.9 ± 1.1 µM
4 | CC(=O)O[C@H]1CC[C@@]2(C)C(CC[C@]3(C)C2C(=O)C=C2[C@@H]4C[C@@](C)(C(=O)O)CC[C@]4(C)CC[C@]23C)C1(C)C (stereo partly drawn) [Compound 1, 3β-acetoxy-11-oxo-18βH-olean-12-en-29-oic acid, reference compound] |  | 12.7 ± 1.1 µM | 1.1 | 2.9 ± 0.1 µM | 4.7 | 13.6 ± 2.2 µM | 7.4 ± 0.6 µM | 1.8 | 15.9 ± 2.3 µM | 0.9 | 1.2 | 11.5 ± 1.5 µM
5 | CC1(C)C2CC[C@]3(C)C(C(=O)C=C4[C@@H]5C[C@@](C)(c6nc(-c7ccncc7)no6)CC[C@]5(C)CC[C@]43C)[C@@]2(C)CC[C@@H]1O (stereo partly drawn) [Compound 5h, 30-nor-3β-hydroxy-11-oxo-20-(3′-(pyridin-4′′-yl)-1′,2′,4′-oxadiazol-5′-yl)-18βH-olean-12-en] | 129.5 to 129.9 °C | 3.5 ± 0.1 µM | > 14.3 | 4.7 ± 0.4 µM | > 10.6 | > 50 µM | 4.9 ± 0.3 µM | > 10.2 | > 50 µM |  |  | > 50 µM
6 | CC(=O)O[C@H]1CC[C@@]2(C)C(CC[C@]3(C)C2C(=O)C=C2[C@@H]4C[C@@](C)(C(=O)O/N=C(/N)c5ccncc5)CC[C@]4(C)CC[C@]23C)C1(C)C (stereo partly shown) [Compound 3h] | 161.3 °C (dec.) | 7.1 ± 1.4 µM | 1.6 | 5.6 ± 0.1 µM | 2.0 | 11.1 ± 0.5 µM | 7 ± 1.4 µM | 1.6 | 7.1 ± 1.6 µM | 1.6 | 1.4 | 7.8 ± 1.9 µM
7 | CC1(C)C2CC[C@]3(C)C(C(=O)C=C4[C@@H]5C[C@@](C)(c6nc(-c7cccnc7)no6)CC[C@]5(C)CC[C@]43C)[C@@]2(C)CC[C@@H]1O (stereo partly drawn) [Compound 5g, 30-nor-3β-hydroxy-11-oxo-20-(3′-(pyridin-3′′-yl)-1′,2′,4′-oxadiazol-5′-yl)-18βH-olean-12-en] | 231.6 °C (dec.) | 4.6 ± 0.3 µM | > 10.9 | 4.7 ± 0.2 µM | > 10.6 | > 50 µM | 16.9 ± 1.4 µM | > 3.0 | > 50 µM |  |  | > 50 µM
8 | CC/C(N)=N\OC(=O)[C@@]1(C)CC[C@]2(C)CC[C@]3(C)C(=CC(=O)C4[C@@]5(C)CC[C@H](OC(C)=O)C(C)(C)C5CC[C@]43C)[C@@H]2C1 (stereo partly shown) [Compound 3b] | 120 °C (dec.) | 3.3 ± 0.2 µM | 0.9 | 2.4 ± 0.2 µM | 1.2 | 2.9 ± 0.3 µM | 6.7 ± 0.7 µM | 0.4 | 7.3 ± 3 µM | 0.4 | 0.4 | 7.2 ± 0.6 µM
9 | CC(=O)O[C@H]1CC[C@@]2(C)C(CC[C@]3(C)C2C(=O)C=C2[C@@H]4C[C@@](C)(C(=O)O/N=C(/N)C(C)C)CC[C@]4(C)CC[C@]23C)C1(C)C (stereo partly shown) [Compound 3c] | 120.3 °C (dec.) | 3 ± 0.2 µM | 0.9 | 2.1 ± 0.2 µM | 1.2 | 2.6 ± 0.1 µM | 4.9 ± 0.4 µM | 0.5 | 2.6 ± 0.1 µM | 1.0 | 0.5 | 5.6 ± 0.2 µM
